{"source": "patent US20170319562A1", "about": "“Compositions and Methods for Extended Therapy with Aminopyridines” (Acorda Therapeutics, Inc., priority 2009, published 2017)", "system": "patients with multiple sclerosis", "experiment": "MS-F202 Phase 2 double-blind placebo-controlled dose-comparison study", "format": "in vivo, human", "set-up": "change in overall Ashworth score, Mean: scale not given here", "experimental": "The Phase 2, dose-ranging study (MS-F202) was a double-blind, randomized, placebo-controlled, parallel group study with dose levels of 4-aminopyridine-SR of 10 mg, 15 mg or 20 mg b.i.d. Patients were titrated to their randomized dose over two weeks; and the fixed-dose treatment phase was 12 weeks in duration. The prospectively defined primary efficacy variable was the percent change from baseline in average walking speed on the T25FW over the last three visits on the assigned stable dose. Other secondary efficacy variables were the other MSFC assessments (9-hole peg test and PASAT 3″), MSFC combined score, LEMMT, the 12-item Multiple Sclerosis Walking Scale (MSWS-12), Multiple Sclerosis Quality of Life Inventory (MSQLI), Ashworth spasticity score, Clinician Global Impression (CGI), and Subject Global Impression (SGI).\nIn the study MS-F202, the primary efficacy variable was the percent change from baseline in average walking speed measured using the T25FW. The following sections provide details on the different assessments.\nA total of 206 patients with multiple sclerosis were randomized and 195 completed treatment (50/52 on 4-aminopyridine-SR 10 mg b.i.d., 49/50 on 15 mg b.i.d., 51/57 on 20 mg b.i.d. and 45/47 on placebo). The prospectively defined primary efficacy variable was the percent change from baseline in average walking speed on the T25FW over the last three visits on the assigned dose (Visits 7-9, the post-titration, stable dose period). The secondary efficacy variable was response, defined as a 20% or greater improvement in walking speed during the 12-week stable-dose double-blind treatment period (i.e. measurements at Visits 7-9). Other secondary efficacy variables were the other MSFC assessments (9-hole peg test and PASAT 3″), MSFC combined score, LEMMT, MSWS-12, MSQLI, Ashworth spasticity score, CGI, and SGI.\nThis example provides an embodiment of a method of treating subjects with a sustained release 4-aminopyridine formulation and a Responder analysis of the present invention. This was a Phase 2, double-blind, placebo-controlled, parallel group, 20-week treatment study in 206 subjects diagnosed with multiple sclerosis. This study was designed to investigate the safety and efficacy of three dose levels of 4-aminopyridine-SR, 10 mg b.i.d., 15 mg b.i.d., and 20 mg b.i.d. in subjects with clinically definite multiple sclerosis. The primary efficacy endpoint was an increase, relative to baseline, in walking speed, on the Timed 25 Foot Walk. Secondary efficacy measurements included lower extremity manual muscle testing in four groups of lower extremity muscles (hip flexors, knee flexors, knee extensors, and ankle dorsiflexors); the 9-Hole Peg Test and Paced Auditory Serial Addition Test (PASAT 3″); the Ashworth score for spasticity; Spasm Frequency/Severity scores; as well as a Clinician's (CGI) and Subject's (SGI) Global Impressions, a Subject's Global Impression (SGI), the Multiple Sclerosis Quality of Life Inventory (MSQLI) and the 12-Item Multiple Sclerosis Walking Scale (MSW S-12).\nAt the first visit (Visit 0), subjects were to enter into a two-week single-blind placebo run-in period for the purpose of establishing baseline levels of function. At Visit 2 subjects were to be randomized to one of four treatment groups (Placebo or 4-aminopyridine-SR 10 mg, 15 mg, 20 mg) and begin two weeks of double-blind dose-escalation in the active drug treatment groups (B, C and D). Group A were to receive placebo throughout the study. Subjects in the 10 mg (Group B) arm of the study took a dose of 10 mg approximately every 12 hours during both weeks of the escalation phase. The 15 mg (Group C) and 20 mg (Group D) dose subjects took a dose of 10 mg approximately every 12 hours during the first week of the escalation phase and titrated up to 15 mg b.i.d. in the second week. Subjects were to be instructed to adhere to an “every 12 hour” dosing schedule. […]", "key": {"[1]": {"conditions": "Fampridine Non-responders, 1st stbl"}, "[2]": {"conditions": "Fampridine Non-responders, 2nd stbl"}, "[3]": {"conditions": "Fampridine Non-responders, 3rd stbl"}, "[4]": {"conditions": "Fampridine Non-responders, titration"}, "[5]": {"conditions": "Fampridine Responders, 1st stbl"}, "[6]": {"conditions": "Fampridine Responders, 2nd stbl"}, "[7]": {"conditions": "Fampridine Responders, 3rd stbl"}, "[8]": {"conditions": "Fampridine Responders, titration"}}, "data": [{"smiles": "Nc1ccncc1", "note": "[4-aminopyridine]", "values": [{"measurement": "rate of serious AE's", "setting": "10 mg bid", "result": 0, "unit": "%"}, {"measurement": "rate of serious AE's", "setting": "15 mg bid", "result": 10, "unit": "%"}, {"measurement": "rate of serious AE's", "setting": "20 mg bid", "result": 12, "unit": "%"}, {"measurement": "mean reduction from baseline in Overall Ashworth Score, range over visits", "setting": "4-aminopyridine Responders, double-blind", "result": "−0.18 to −0.11", "unit": "units"}, {"measurement": "change in overall Ashworth score, Mean", "setting": "[1]", "result": "−0.08"}, {"measurement": "percent change in LEMMT, Mean", "setting": "[1]", "result": 0.10}, {"measurement": "percent change in Walking Speed, Mean", "setting": "[1]", "result": 3.5}, {"measurement": "change in overall Ashworth score, Mean", "setting": "[2]", "result": "−0.07"}, {"measurement": "percent change in LEMMT, Mean", "setting": "[2]", "result": 0.09}, {"measurement": "percent change in Walking Speed, Mean", "setting": "[2]", "result": "−0.2"}, {"measurement": "change in overall Ashworth score, Mean", "setting": "[3]", "result": 0.00}, {"measurement": "percent change in LEMMT, Mean", "setting": "[3]", "result": 0.10}, {"measurement": "percent change in Walking Speed, Mean", "setting": "[3]", "result": "−6.5"}, {"measurement": "change in overall Ashworth score, Mean", "setting": "[4]", "result": "−0.16"}, {"measurement": "percent change in LEMMT, Mean", "setting": "[4]", "result": 0.12}, {"measurement": "percent change in Walking Speed, Mean", "setting": "[4]", "result": 8.3}, {"measurement": "change in overall Ashworth score, Mean", "setting": "[5]", "result": "−0.18"}, {"measurement": "percent change in LEMMT, Mean", "setting": "[5]", "result": 0.09}, {"measurement": "percent change in Walking Speed, Mean", "setting": "[5]", "result": 24.6}, {"measurement": "change in overall Ashworth score, Mean", "setting": "[6]", "result": "−0.11"}, {"measurement": "percent change in LEMMT, Mean", "setting": "[6]", "result": 0.09}, {"measurement": "percent change in Walking Speed, Mean", "setting": "[6]", "result": 29.0}, {"measurement": "change in overall Ashworth score, Mean", "setting": "[7]", "result": "−0.18"}, {"measurement": "percent change in LEMMT, Mean", "setting": "[7]", "result": 0.17}, {"measurement": "percent change in Walking Speed, Mean", "setting": "[7]", "result": 27.3}, {"measurement": "change in overall Ashworth score, Mean", "setting": "[8]", "result": "−0.14"}, {"measurement": "percent change in LEMMT, Mean", "setting": "[8]", "result": 0.18}, {"measurement": "percent change in Walking Speed, Mean", "setting": "[8]", "result": 27.4}, {"measurement": "post hoc Responder rate (consistently faster walking speeds on drug)", "setting": "combined/pooled 4-aminopyridine-SR groups", "result": "approximately 37%"}]}]}
